From the supplement of paper PMC13380429

Tests used:
Details in all cases: 72 h
Caco-2 [1] = assay: cell viability relative to DMSO; higher = less toxic
HepG2 [2] = assay: as above
U2OS [3] = assay: as above
Vero E6 [4] = assay: as above
Caco-2 [5] = assay: relative viability EC50 (midpoint between 100% and the lowest measured viability); higher = less toxic
HepG2 [6] = assay: as above
U2OS [7] = assay: as above
Vero E6 [8] = assay: as above
Caco-2 [9] = assay: drug sensitivity score (DSS) for viability; higher = more toxic; extreme values may be limits of the assay
HepG2 [10] = assay: as above
U2OS [11] = assay: as above
Vero E6 [12] = assay: as above
Calu-3 [13] = assay: cell viability relative to DMSO; higher = less toxic
Calu-3 [14] = assay: relative viability EC50 (midpoint between 100% and the lowest measured viability); higher = less toxic
Calu-3 [15] = assay: drug sensitivity score (DSS) for viability; higher = more toxic; extreme values may be limits of the assay

| Structure (SMILES) | cell viability (Caco-2 [1]; 1 nM) [%] | cell viability (Caco-2 [1]; 10 nM) [%] | cell viability (Caco-2 [1]; 100 nM) [%] | cell viability (Caco-2 [1]; 1000 nM) [%] | cell viability (Caco-2 [1]; 10000 nM) [%] | cell viability (HepG2 [2]; 1 nM) [%] | cell viability (HepG2 [2]; 10 nM) [%] | cell viability (HepG2 [2]; 100 nM) [%] | cell viability (HepG2 [2]; 1000 nM) [%] | cell viability (HepG2 [2]; 10000 nM) [%] | cell viability (U2OS [3]; 1 nM) [%] | cell viability (U2OS [3]; 10 nM) [%] | cell viability (U2OS [3]; 100 nM) [%] | cell viability (U2OS [3]; 1000 nM) [%] | cell viability (U2OS [3]; 10000 nM) [%] | cell viability (Vero E6 [4]; 1 nM) [%] | cell viability (Vero E6 [4]; 10 nM) [%] | cell viability (Vero E6 [4]; 100 nM) [%] | cell viability (Vero E6 [4]; 1000 nM) [%] | cell viability (Vero E6 [4]; 10000 nM) [%] | relative viability EC50 (Caco-2 [5]) [µM] | relative viability EC50 (HepG2 [6]) [µM] | relative viability EC50 (U2OS [7]) [µM] | relative viability EC50 (Vero E6 [8]) [µM] | drug sensitivity score (Caco-2 [9]) | drug sensitivity score (HepG2 [10]) | drug sensitivity score (U2OS [11]) | drug sensitivity score (Vero E6 [12]) | cell viability (Calu-3 [13]; 1 nM) [%] | cell viability (Calu-3 [13]; 10 nM) [%] | cell viability (Calu-3 [13]; 100 nM) [%] | cell viability (Calu-3 [13]; 1000 nM) [%] | cell viability (Calu-3 [13]; 10000 nM) [%] | relative viability EC50 (Calu-3 [14]) [µM] | drug sensitivity score (Calu-3 [15]) |
| --- | --- | --- | --- | --- | --- | --- | --- | --- | --- | --- | --- | --- | --- | --- | --- | --- | --- | --- | --- | --- | --- | --- | --- | --- | --- | --- | --- | --- | --- | --- | --- | --- | --- | --- | --- |
| Nc1ncnc2c1c(-c1ccc(Cl)cc1)nn2-c1cccc(-c2cnnn2Cc2cccc(-c3ccccc3)c2)c1 [KB-SRC-4] | 99.1 | 94.7 | 99.7 | 93.6 | 101 | 107 | 98.4 | 99.1 | 99.5 | 111 | 95.2 | 96.5 | 95.5 | 101 | 103 | 97.7 | 99.1 | 95.9 | 93.7 | 105 | > 10 | > 10 | > 10 | > 10 | 0 | 0 | 0 | 0 | – | – | – | – | – | – | – |
| Cc1ccc2c(c1)Cc1c(C(=O)NC3CCCCC3)nn(-c3ccc(Cl)cc3Cl)c1-2 [GP2a] | 91.8 | 89.6 | 97.3 | 95.4 | 91.7 | 100 | 102 | 99 | 88.9 | 99.7 | 95.8 | 99.4 | 97.4 | 105 | 102 | 99.5 | 96.2 | 99.8 | 100 | 100 | > 10 | > 10 | > 10 | > 10 | 0 | 0 | 0 | 0 | – | – | – | – | – | – | – |
| CN(C)CCOC(c1ccccc1)c1ccccc1 [diphenhydramine] | 100 | 93.9 | 96.1 | 91.8 | 128 | 97.8 | 93.3 | 95.3 | 103 | 84.4 | 102 | 103 | 104 | 96.5 | 102 | – | – | – | – | – | > 10 | > 10 | > 10 | – | 0 | 0.2 | 0 | – | 97.5 | 104 | 114 | 112 | 105 | > 10 | 0 |
| Cc1cccc(C)c1NC(=O)[C@@H](C)N [tocainide] | 96.8 | 95.8 | 97.5 | 101 | 95.5 | 107 | 102 | 91.5 | 94.2 | 95.3 | 100 | 102 | 99.2 | 104 | 98.5 | – | – | – | – | – | > 10 | > 10 | > 10 | – | 0 | 0 | 0 | – | 105 | 92.3 | 90 | 108 | 103 | > 10 | 0 |
| CC(C)c1ccccc1S(=O)(=O)c1cc(N)c2ncccc2c1[N+](=O)[O-] | 98.7 | 102 | 99.1 | 97.3 | 89.8 | 100 | 95.8 | 100 | 89.9 | 110 | 99.7 | 102 | 96.3 | 98.5 | 93.7 | 98 | 103 | 107 | 102 | 100 | > 10 | > 10 | > 10 | > 10 | 0 | 0 | 0 | 0 | – | – | – | – | – | – | – |
| Cc1ccnc2c1CCCC2C(N)=S (configuration not stated) [isotiquimide] | 106 | 102 | 99.9 | 96 | 110 | 103 | 100 | 92.4 | 99.4 | 98.6 | 102 | 97.4 | 100 | 101 | 102 | – | – | – | – | – | > 10 | > 10 | > 10 | – | 0 | 0 | 0 | – | 95.1 | 86.7 | 98.1 | 107 | 106 | > 10 | 0 |
| CC(C)(C)[C@H]1CC[C@H](CC2=C(O)C(=O)c3ccccc3C2=O)CC1 [buparvaquone] | 94.1 | 101 | 102 | 111 | 81.3 | 99.5 | 104 | 98.9 | 93.9 | 71.1 | 97.4 | 100 | 99.3 | 102 | 97.6 | 102 | 101 | 105 | 82.7 | 65.5 | > 10 | – | > 10 | – | 0.3 | 2.2 | 0 | 3.8 | 91.4 | 104 | 95 | 96.6 | 94 | > 10 | 0 |
| CCn1cc(C(=O)O)c(=O)c2cnc(N3CCNCC3)nc21 [pipemidic-acid] | 94.2 | 102 | 95.5 | 99.4 | 92.9 | 110 | 108 | 107 | 99.8 | 102 | 98.7 | 101 | 97.4 | 104 | 100 | – | – | – | – | – | > 10 | > 10 | > 10 | – | 0 | 0 | 0 | – | 107 | 99.1 | 103 | 96.9 | 91.9 | > 10 | 0 |
| O=C1NCCc2[nH]c(-c3ccncc3)cc21 | 96.1 | 93.6 | 94.2 | 94.9 | 38.5 | 91.4 | 102 | 92.4 | 33.1 | 9.5 | 95.2 | 104 | 93.6 | 95.3 | 5.8 | 98 | 98.2 | 98.1 | 85.7 | 13.5 | 2.48 | 0.499 | 2.77 | 1.9 | 4.2 | 13.6 | 5.9 | 7.2 | 94 | 94.6 | 94.6 | 79.5 | 53.6 | – | 4.6 |
| c1ccc(CNCc2ccc(CN3CCCNCCNCCCNCC3)cc2)nc1 [AMD-3465] | 105 | 100 | 102 | 100 | 96.2 | 102 | 101 | 101 | 103 | 97.3 | 102 | 99.3 | 101 | 99 | 103 | – | – | – | – | – | > 10 | > 10 | > 10 | – | 0 | 0 | 0 | – | 102 | 97.5 | 94.1 | 101 | 115 | > 10 | 0 |
| Nc1c(CC(=O)O)cccc1C(=O)c1ccccc1 [amfenac] | 101 | 97.4 | 104 | 94.1 | 97.4 | 103 | 105 | 97.9 | 106 | 101 | 101 | 96 | 102 | 97.2 | 104 | 94.1 | 102 | 97.2 | 102 | 102 | > 10 | > 10 | > 10 | > 10 | 0 | 0 | 0 | 0 | – | – | – | – | – | – | – |
| CCn1c(O)nnc1-c1ccc(Cl)cc1 [5-(4chlorophenyl)-4-ethyl-2,4-dihydro-3H-1,2,4-triazol-3-one] | 116 | 112 | 112 | 91.6 | 79.1 | 112 | 111 | 102 | 98.3 | 94.7 | 100 | 103 | 99.8 | 98.1 | 78.6 | 97.9 | 102 | 102 | 106 | 79.6 | > 10 | > 10 | > 10 | > 10 | 1.6 | 0 | 1 | 0.4 | – | – | – | – | – | – | – |
| COc1cc2ncn(-c3cc(OCc4ccccc4C(F)(F)F)c(C(N)=O)s3)c2cc1OC | 102 | 95.5 | 102 | 73.4 | 62.3 | 95.6 | 108 | 105 | 50 | 26.5 | 102 | 97.8 | 102 | 94.4 | 89.4 | 104 | 96 | 98.8 | 69.1 | 57.5 | – | 0.743 | > 10 | – | 4.9 | 9.9 | 0.1 | 5.9 | 95.9 | 101 | 95.4 | 90 | 86.1 | > 10 | 0.5 |
| CC(=O)O[C@]1(C(C)=O)CC[C@H]2[C@@H]3C=CC4=CC(=O)CC[C@]4(C)[C@H]3CC[C@@]21C [6,7-dehydro-17-acetoxy-progesterone] | 95.6 | 97.5 | 93.7 | 92.8 | 92.6 | 102 | 103 | 105 | 105 | 98 | 96.4 | 99.6 | 97.3 | 101 | 94.8 | 106 | 99.5 | 104 | 98.1 | 98.2 | > 10 | > 10 | > 10 | > 10 | 0 | 0 | 0 | 0 | – | – | – | – | – | – | – |
| CCOCCn1c(C2CCN(CCc3ccc(C(C)(C)C(=O)O)cc3)CC2)nc2ccccc21 [bilastine] | 102 | 87.5 | 85.6 | 92.5 | 87.8 | 94.3 | 96 | 104 | 97.6 | 100 | 96.6 | 98.2 | 103 | 103 | 95.7 | – | – | – | – | – | > 10 | > 10 | > 10 | – | 3.1 | 0 | 0 | – | 98.1 | 106 | 93.5 | 97.8 | 99.5 | > 10 | 0 |
| CCn1cc(-c2ccnc3[nH]c(-c4cccc(CN(C)C)c4)cc23)c(-c2ccc(NC(=O)N(C)C)cc2)n1 | 96.3 | 95.7 | 98 | 93.1 | 56.2 | 106 | 105 | 77.8 | 72.3 | 20.1 | – | – | – | – | – | 103 | 104 | 98.5 | 82 | 63.5 | – | 1.19 | – | – | 3.4 | 8.1 | – | 3.8 | 97.8 | 110 | 81.9 | 97.7 | 81.9 | > 10 | 0.6 |
